Source: BindingDB's records for patent US10624871 (The University of Hong Kong, 2020)

Tests used:
[1] = target: T1, Metallo-beta-lactamase VIM-2 [21-266] (Klebsiella pneumoniae, UniProt Q3Y6Q3); test: Enzyme Inhibition Assay
T1 construct: 21-266
Protocol: (§1) Freshly prepared Zn2-NDM-1 (50 nM) or Zn2-VIM-2 were first incubated with various concentrations of Bi(III) compounds for 1 h at 25° C. The assay was performed in a 1 cm quartz cuvette using the kinetic mode of Varian Cary 50 UV-visible spectrophotometer at 25° C. The final assay buffer contains 50 mM HEPES/Na pH 7.0, 100 mM NaCl and 100 μM MER. The decrease in absorbance at 300 nm due to ring-opening of MER was monitored every second for a duration of 10 mins until the reaction was completed. The initial rate were extracted and calculated from each reaction curves.

[2] = target: T2, Metallo-beta-lactamase type 2 [29-270] (Klebsiella pneumoniae, UniProt C7C422); test: Enzyme Inhibition Assay
T2 construct: 29-270
T2 sequence (C7C422 29-270): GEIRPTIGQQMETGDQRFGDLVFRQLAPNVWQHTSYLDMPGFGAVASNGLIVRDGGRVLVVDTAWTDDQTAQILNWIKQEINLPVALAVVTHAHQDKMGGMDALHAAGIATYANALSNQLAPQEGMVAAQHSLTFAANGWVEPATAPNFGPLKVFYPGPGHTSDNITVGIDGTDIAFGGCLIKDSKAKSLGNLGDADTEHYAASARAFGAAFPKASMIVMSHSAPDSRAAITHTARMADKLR
Protocol: as §1

Structure (SMILES)	IC50 [1] [µM]	IC50 [2] [µM]
O=C(O)C[C@@](O)(CC(O)O)C(=O)O [US10624871, Compound 10]	44.5	5.83
C[C@H](CS)C(=O)N1CCC[C@H]1C(=O)O [US10624871, Compound 15]	6.17	
CC(=O)N[C@@H](CS)C(=O)O [US10624871, Compound 21]		17.7
[Bi+3] [US10624871, Compound Bi(NO3)3]	2.45	1.89
